Results reported in patent publication US5527821A, “Pharmacologically active alpha-[tertiary-aminomethyl]-benzenemethanol derivatives” (Pharmacia AB, priority 1992, dated 1996).
pEC50: −log10 of the molar value. Where a name gives a salt, the structure may show the parent alone. Read-outs that look alike come from different tables or passages of the source.

Assays:
isolated rabbit urethra = assay: Effects on the isolated rabbit urethra (contraction, in vitro); type: cell-based; details: Krebs solution, 37° C.; for pEC50: cumulative addition; for Emax / Urethra, in vitro: Max. contraction: cumulative addition (12 concentrations), reference noradrenaline 6×10^-5 M
Description: (§1) Female rabbits weighing 2.5-3.0 kg were sacrificed and exsanguinated. The urethra and portal vein were dissected out and suspended in organ baths containing oxygenated Krebs solution at 37° C. Two rings of urethra (4 mm broad) and two longitudinal strips of the portal vein were used. The basal tension was adjusted to about 10 mN after an equilibration time of 60 minutes. Isometric tension was recorded via a force transducer (Statham FT03) and registered on a Grass polygraph model 7.
(§2) Submaximum concentrations of noradrenaline (6×10^-5 M) were used to achieve reference contractions.
(§3) The test substances were added cumulatively (12 concentrations) until a maximum response was obtained.

[1] = system: isolated rabbit portal vein; assay: Effects on the isolated rabbit portal vein (contraction, in vitro); type: cell-based; details: for pEC50 / Emax: Oryctolagus cuniculus; for pEC50: read-out: Portal vein, in vitro: EC50 value (effective concentration inducing a half maximum contraction); for Emax / Portal vein, in vitro: Max. contraction: cumulative addition (12 concentrations), reference noradrenaline 6×10^-5 M
Description: as §1, §2, §3

[2] = system: urethra (urethral pressure in anaesthetized rabbits); assay: Effects on urethral pressure in anaesthetized rabbits; type: in vivo, rabbit; details: reference noradrenaline 0.025 μg/kg i.v.
Description: (§4) Rabbits, weighing 2.5-3 kg, were anaesthetized by pentobarbitone (initially 40 mg/kg i.v. and for maintenance anaesthesia 10 mg/kg, h). For recording of urethral pressure a catheter (Dog cath nr 6.) was inserted into the urethra and placed at the point of highest pressure. The basal urethral pressure was approximately 10 cm H2 O. The blood pressure was recorded via a catheter (PP50) inserted into a femoral artery. Substances were injected intravenously into a catheter in a femoral vein. The continuous intravenous infusion of pentobarbitone kept the depth of anesthesia at a constant level through the experiment. Three consecutive noradrenaline injections (0.025 μg/kg i.v.) were given initially to constitute reference responses. Repeated intravenous injections of different doses of the same test compound were given in a randomized manner. […] In other pharmacological experiments (not described here) it was also shown that the described compounds had no or minimal effect on other organs, such as for example the urinary bladder, central nervous system, intestine, vas deferens etc.

[3] = system: blood pressure in anaesthetized rabbits; assay: Effects on blood pressure in anaesthetized rabbits; type: in vivo, rabbit; details: i.v. injections of different doses, femoral artery catheter
Description: as §4

[4] = Oryctolagus cuniculus, read-out: Urethra, in vitro: EC50-value (effective concentration inducing a half maximum contraction), female rabbit urethra rings
[5] = Oryctolagus cuniculus, read-out: Urethra, in vitro: Max. contraction, female rabbit urethra rings
[6] = read-out: Portal vein, in vitro: Max. contraction, female rabbit portal vein longitudinal strips, Krebs solution, 37° C.
[7] = Oryctolagus cuniculus, iv, read-out: Max. urethral pressure in vivo, in % of NA-max, anaesthetized rabbits, i.v. injections of different doses
[8] = Oryctolagus cuniculus, female rabbit urethra rings, read-out: Urethra, in vitro: Max. contraction
[9] = Oryctolagus cuniculus, female rabbit urethra rings, read-out: Urethra, in vitro: EC50-value (effective concentration inducing a half maximum contraction)
[10] = female rabbit portal vein longitudinal strips, Krebs solution, 37° C., read-out: Portal vein, in vitro: Max. contraction
[11] = female rabbit portal vein longitudinal strips, cumulative addition, Krebs solution, 37° C.
[12] = Oryctolagus cuniculus, iv, anaesthetized rabbits, i.v. injections of different doses, read-out: Max. urethral pressure in vivo, in % of NA-max
[13] = female rabbit portal vein longitudinal strips, Krebs solution, 37° C.
[14] = read-out: Urethra, in vitro: EC50-value (effective concentration inducing a half maximum contraction), female rabbit urethra rings
[15] = anaesthetized rabbits, i.v. injections of different doses

SMILES | pEC50 (isolated rabbit urethra; [4]) | Emax (isolated rabbit urethra; [5]) | pEC50 [1] | Emax [1, 6] | Emax [2, 7] | Blood pressure; max change, in % [3] | further results
CCN(C)CC(O)c1cccc(Cl)c1OC(C)C.Cl (stereo not drawn) [Compound 11, 3-Chloro-α-[(N-ethyl-N-methylamino)methyl]-2-(1-methylethoxy)-benzenemethanol, hydrochloride] | 5.28 | 100% | 5.35 | 54% | 210% | 34% | 
CC(C)Sc1c(Cl)cccc1C(O)CN(C)C (stereo not drawn) [Compound 13, 3-Chloro-α-[(dimethylamino)methyl]-2-(1-methylethylthio)-benzenemethanol, hydrochloride] | 4.11 | 45% |  | 4% |  |  | 
NC[C@H](O)c1ccc(O)c(O)c1 [Noradrenaline, noradrenaline, reference compound] |  |  |  |  |  |  | Emax (isolated rabbit urethra; [8]): 100%; pEC50 (isolated rabbit urethra; [9]): 4.80; Emax [1, 10]: 100%; pEC50 [1, 11]: 5.28; Emax at 2.5e-05 mg/kg [2, 12]: 100%
CC(C)Oc1c(C(O)CN(C)C)cccc1[N+](=O)[O-] (stereo not drawn) [Compound 12, α-[(Dimethylamino)methyl]-2-(1-methylethoxy)-3-nitro-benzenemethanol, hydrochloride] | 4.96 | 80% | 4.77 | 18% |  |  | 
CC=COc1c(OC)cccc1C(O)CN1CCCC1.O=C(O)C(=O)O (stereo not drawn) [Compound 8, 3-Methoxy-2-(1-propenyloxy)-α-pyrrolidinomethyl-benzenemethanol, hydrogen oxalate] |  |  |  |  |  |  | Urethra, in vitro: Max. contraction (isolated rabbit urethra; female rabbit urethra rings): 52 % of NA-max; pEC50 (isolated rabbit urethra; female rabbit urethra rings, read-out: Urethra, in vitro: EC50-value (effective concentration inducing a half maximum contraction)): 3.72; Portal vein, in vitro: Max. contraction [1, 13]: 0 % of NA-max
CC(C)Oc1c(Cl)cccc1C(O)CN1CCCC1 (stereo not drawn) [Compound 7, 3-Chloro-2-(1-methylethoxy)-α-pyrrolidinomethyl-benzenemethanol, hydrogen oxalate] |  |  |  |  |  | -3% | Emax (isolated rabbit urethra; [8]): 73%; pEC50 (isolated rabbit urethra; [9]): 4.92; Emax [1, 10]: 14%; pEC50 [1, 11]: 4.39; Emax [2, 12]: 189%
COc1cccc(C(O)CN(C)C)c1OC(C)C (stereo not drawn) [Compound 4, α-[(Dimethylamino)methyl]-3-methoxy-2-(1-methylethoxy)-benzenemethanol, hydrogen oxalate] | 5.24 | 95% | 4.06 | 35% | 211% | 10% | 
CC(C)Oc1c(Cl)cccc1C(O)CN(C)C.Cl (stereo not drawn) [Compound 9, 3-Chloro-α-[(dimethylamino)methyl]-2-(1-methylethoxy)-benzenemethanol, hydrochloride] | 4.96 | 79% | 4.22 | 22% | 192% | 14% | 
CCN(CC)CC(O)c1cccc(OC)c1OC(C)C (stereo not drawn) [Compound 3, α-[(Diethylamino)methyl]-3-methoxy-2-(1-methylethoxy)-benzenemethanol, hydrogen oxalate] | 5.18 | 105% | 3.89 | 11% | 131% | -2% | 
CC(C)Oc1c(Cl)cccc1C(O)CN(C)C (single isomer, unassigned; (+)) [Compound 6:2, (+)-3-chloro-α-[(dimethylamino)methyl]-2-(1-methylethoxy)-benzenemethanol] |  |  | 4.77 |  |  |  | Urethra, in vitro: Max. contraction (isolated rabbit urethra; female rabbit urethra rings): 107 % of NA-max; pEC50 (isolated rabbit urethra; [14]): 5.35; Portal vein, in vitro: Max. contraction [1, 13]: 15 % of NA-max
CCN(CC)CC(O)c1cccc(Cl)c1OC(C)C (stereo not drawn) [Compound 10, 3-Chloro-α-[(diethylamino)methyl]-2-(1-methylethoxy)-benzenemethanol, hydrogen oxalate] | 4.92 | 81% | 4.96 | 28% |  |  | 
Cc1cccc(C(O)CN(C)C)c1OC(C)C (stereo not drawn) [Compound 1, α-[(Dimethylamino)methyl]-2-(1-methylethoxy)-3-methyl-benzenemethanol, hydrochloride] | 4.62 | 85% | 4.62 | 47% |  |  | 
C=CCOc1c(OC)cccc1C(O)CN(C)C (stereo not drawn) [Compound 15, α-[(Dimethylamino)methyl]-3-methoxy-2-(2-propenyloxy)-benzenemethanol, hydrogen oxalate] | 4.33 | 104% | 4.05 | 11% |  |  | 
COc1cccc(C(O)CN2CCCC2)c1OC(C)C (stereo not drawn) [Compound 5, 3-Methoxy-2-(1-methylethoxy)-α-pyrrolidinomethyl-benzenemethanol, hydrochloride] |  |  |  |  |  |  | Emax (isolated rabbit urethra; [8]): 68%; pEC50 (isolated rabbit urethra; [9]): 3.96; Emax [1, 10]: 6%
CC(N)C(O)c1ccccc1 (stereo not drawn) [PPA, phenylpropanolamine, reference compound] | 3.70 | 60% | 4.15 | 67% | 99% | 72% | 
COc1cccc(C(O)CN(C)C)c1OC(C)C (single isomer, unassigned) [Compound 6:4, (-)-α-[(dimethylamino)methyl]-3-methoxy-2-(1-methylethoxy)-benzenemethanol] |  |  |  |  |  | 11% | Urethra, in vitro: Max. contraction (isolated rabbit urethra; female rabbit urethra rings): 88 % of NA-max; pEC50 (isolated rabbit urethra; [14]): 4.21; Portal vein, in vitro: Max. contraction [1, 13]: 8 % of NA-max; Max. urethral pressure in vivo, in % of NA-max [2, 15]: 150 % of NA-max
COc1cccc(C(O)CN(C)C)c1OC(C)C (single isomer, unassigned) [Compound 6:3, (+)-α-[(dimethylamino)methyl]-3-methoxy-2-(1-methylethoxy)-benzenemethanol] |  | 106% | 3.92 |  |  | 14% | pEC50 (isolated rabbit urethra; [14]): 5.19; Portal vein, in vitro: Max. contraction [1, 13]: 34 % of NA-max; Max. urethral pressure in vivo, in % of NA-max [2, 15]: 288 % of NA-max
CC(C)Oc1c(Cl)cccc1C(O)CN(C)C (single isomer, unassigned; (-)) [Compound 6:1] |  |  |  | 9% |  |  | Urethra, in vitro: Max. contraction (isolated rabbit urethra; female rabbit urethra rings): 69 % of NA-max; pEC50 (isolated rabbit urethra; [14]): 4.68
CCOc1c(Cl)cccc1C(O)CN(C)C.Cl (stereo not drawn) [Compound 2, 3-Chloro-α-[(dimethylamino)methyl]-2-ethoxy-benzenemethanol, hydrochloride] | 4.74 | 105% | 5.17 | 22% | 123% | 9% | 
COc1cccc(C(O)CN(C)C)c1SC(C)C (stereo not drawn) [Compound 14, α-[(Dimethylamino)methyl]-3-methoxy-2-(1-methylethylthio)-benzenemethanol, hydrochloride] | 4.96 | 67% |  | 5% |  |  | 
